Results: patent US12116611B2, “Method of treating intellectual disability, autism and epilepsy associated with an IQSEC2 mutation and for identifying medicaments for treating the same” (TECHNION RESEARCH & DEVELOPMENT FOUNDATION LIMITED, priority 2018, dated 2024)
pEC50, pKd: −log10 of the molar value. Values joined by “and” are separate entries in the source; they are usually repeats but may differ in a detail not shown here. Equal values may be shown once. “Also recorded” adds a separate entry of the source. Read-outs that look alike come from different tables or passages of the source.

Experiments:
[1] = system: calmodulin-IQSEC2 interaction; test: Binding of luciferase-IQSEC2 to calmodulin-sepharose in vitro; design: species or system human; settings: for pEC50: read-out: Free calcium concentration for half-maximal binding of calcium-calmodulin to IQSEC2
Protocol: The binding of wild type and mutant IQSEC2 to calmodulin was assessed in vitro using calmodulin-sepharose (BioVision, Milipetas, CA). Extracts from stably transfected cells were prepared in either buffer A [50 mM Tris pH 7.5; 150 mM NaCl, 10 mg/ml BSA; 5 mM EGTA and 0.1% Triton X-100] or buffer B [10 mM Tris pH 7.5; 150 mM NaCl, 5 mM EGTA, 5% glycerol, 0.5% Triton X-100]. Extracts were clarified by centrifugation at 14000 rpm at 4° C. to remove insoluble debris and the amount of luciferase activity in the extract assessed using the Promega luciferase assay system and a Turner TD 20/20 luminometer. Extracts (10,000-100,000 luciferase units) were then incubated in buffer A or buffer B with or without CaCl2 in a total volume of 1 cc. The concentration of free calcium in the incubation conditions was calculated using the maxchelator algorithm (maxchelator.stanford.edu) which is based on the ionic strength, pH, temperature and dissociation constant of EGTA for calcium. The concentration of free calcium used in these studies ranged from 0.73 nM to 2 mM. 10 μl of calmodulin-sepharose was added to the incubation and mixed on a rotary apparatus for 3-4 hours. The calmodulin-sepharose was washed twice with binding buffer, resuspended in 100 μl of luciferase reagent lysis buffer and 20 μl was assessed for luciferase activity.
Investigation of this interaction in a cell-free system in vitro using luciferase tagged IQSEC2 and calmodulin coupled to sepharose allowed for the precise control of calcium concentration which is known to dramatically affect the conformation and interactions of calmodulin with other proteins. In this system luciferase activity associated with calmodulin sepharose was used a quantitative readout of the calmodulin-IQSEC2 interaction. The IQ motif is present in over 100 proteins and in some cases preferentially binds to calcium-calmodulin while in other cases it binds preferentially to calcium-free calmodulin (apocalmodulin) (Bahler and Rhoads, 2002). […] However, when the effect of calcium on the IQSEC2 calmodulin interaction was assessed, it was observed that calcium increased the binding of calmodulin to IQSEC2. Upon reviewing the buffers used by the research group in assessing binding of IQSEC2 to calmodulin, it was discovered that the concentration of Triton X-100 used in the binding and wash buffers was differed. […] Triton X-100 binds to most proteins via both hydrophobic and polar interactions [Singh and Kishore, 2006] and may thereby disrupt protein-protein interactions at high concentrations. […] The binding of wild type or A350V luciferase-IQSEC2 to calmodulin was assessed over a wide range of calcium concentrations.

calmodulin = calmodulin (Homo sapiens, UniProt P0DP23); settings: Persechini and Cronk et al, 1999; read-out: Kd of calcium for calmodulin; cited from earlier work
endogenous Arf6 = test: Arf6-GTP GGA3 pulldown assay in transfected HEK293T cells, with or without ionomycin; format: cell-based, human
Protocol: For the assessment of Arf6-GTP using a GGA-3 pulldown assay and western blot, HEK293T cells were transfected with FLAG-tagged WT, A350V, or R359C IQSEC2 in pCAGGS vector by calcium phosphate. Twenty-four hours after transfection, the cultures were treated with 5 μM ionomycin or ethanol vehicle for 5 mins, then lysed in 50 mM Tris-HCl, pH 7.5, 100 mM NaCl, 2 mM MgCl2, 0.2% SDS, 0.5% sodium deoxycholate, 1% Triton X-100, 10% glycerol, and 1× Halt protease inhibitor cocktail. An Arf6-GTP pull-down assay was carried out as described (Shoubridge et al, 2010). Briefly, lysates were cleared by centrifugation at 10,000 rpm for 10 min and incubated with GGA3:GST on glutathione-sepharose beads for 5 hours at 4° C. The beads were washed and bound proteins were eluted and probed by immunoblot with rabbit anti-Arf6 (1:750, Cell Signaling #5740). Lysates were also probed against total Arf6 and with rabbit anti-FLAG (1:1000; Covance #PRB-132P) to detect expression of FLAG-IQSEC2. Bands were visualized with the use of a LiCor Odyssey imaging system and quantified with Image Studio Lite. Each band was normalized to the untreated sham-transfected control. The data were statistically analyzed by one-way ANOVA followed by Tukey's Multiple Comparison Test for post-hoc analysis.
The activation of Arf6 (Arf6-GTP) by wild type, A350V, or R359C IQSEC2 in a GGA3 pulldown assay was also assessed. HEK 293T cells were transiently transfected with constructs to express either wild type, A350V or R359C IQSEC2, and endogenous Arf6 activation was tested with or without treatment with the calcium ionophore ionomycin. […] Cell lysates were incubated with beads coated with GGA3:GST to isolate the GTP-bound Arfs, and bound Arf6 was assessed by immunoblot (FIG. 4A).

SMILES | Change in binding of calmodulin to wild type IQSEC2 ([1]; 100 μM calcium, high (0.5%) Triton X-100) | Change in binding of calmodulin to wild type IQSEC2 ([1]; 100 uM calcium, low (0.1%) Triton X-100) | pEC50 ([1]; A350V IQSEC2, 0.1% Triton X-100) | pEC50 ([1]; wild type IQSEC2, 0.1% Triton X-100) | pKd (calmodulin) | Effect of ionomycin on Arf6 activation (endogenous Arf6; HEK293T cells transfected with A350V IQSEC2) | Effect of ionomycin on Arf6-GTP induction (endogenous Arf6; HEK293T cells transfected with R359C IQSEC2) | Arf6 activation (Arf6-GTP) compared to sham transfected cells (endogenous Arf6; HEK293T cells transfected with wild type IQSEC2, 5 μM ionomycin for 5 mins) [fold increase]
[Ca+2] [calcium] | several fold decrease; also recorded: significant decrease | several fold increase; also recorded: significant increase | ~6.00 | ~6.00 | 6.00 and ~6.00 |  |  | 
C[C@H](CCC(=O)O)C[C@H](C)C[C@H](C)C(=O)/C=C(\O)[C@H](C)C[C@H](C)C/C=C/[C@@H](C)[C@@H](O)[C@@H](C)[C@@H](O)C[C@@H]1CC[C@@](C)([C@H]2CC[C@@](C)([C@@H](C)O)O2)O1 [ionomycin] |  |  |  |  |  | did not further increase Arf6 activation | unresponsive | 8.03±1.89
